Measurements: patent publication US20130273649A1, “Culture medium for pluripotent stem cells” (UNIVERSITY OF SOUTHERN CALIFORNIA, priority 2012, published 2013)

Columns and labels:
mouse EpiSCs = test: Mouse EpiSC self-renewal culture; assay type: cell-based; details: for EpiSC self-renewal / maintenance of undifferentiated state: CD1 mouse EpiSCs, GMEM/10% FBS, no FGF2/activin unless named, CHIR 3 μM, PD0325901 1 μM, XAV939 2 μM, IWR-1 2.5 μM, IWP-2 2.5 μM, Pyrvinium 100 nM
Source text: We therefore reasoned that if CHIR induces EpiSC differentiation through stabilization of β-catenin, de-stabilization of β-catenin might promote EpiSC self-renewal. We tested this hypothesis by administering the tankyrase inhibitor XAV939 to mouse EpiSC cultures. XAV939-mediated inhibition of tankyrase stabilizes Axin, leading to the formation of the β-catenin destruction complex, composed of GSK3, Axin and adenomatous polyposis coli (APC) (Huang et al., 2009). […] EpiSCs cultured in CHIR/XAV could be routinely passaged by single-cell dissociation and replating onto gelatin-coated dishes, and could be cryo-preserved and recovered at high efficiency by standard techniques.
final concentrations: CHIR99021 (3 μM), PD0325901 (1 μM), XAV939 (Sigma, 2 μM), IWR-1 (Sigma, 2.5 μM), IWP-2 (Stemgent, 2.5 μM), Pyrvinium (Sigma, 100 nM), recombinant human FGF2 (PeproTech, 10 ng/ml), and recombinant human activin A (PeproTech, 10 ng/ml). CHIR99021 and PD0325901 were synthesized in the Division of Signal Transduction Therapy, University of Dundee, UK.
The basal medium for mouse EpiSC culture is the conventional mouse ESC medium, which consists of GMEM (Sigma) supplemented with 10% fetal bovine serum (FBS) (Hyclone), 2 mM L-glutamine (Invitrogen), 1 mM sodium pyruvate (Invitrogen), 1% nonessential amino acids (Invitrogen), and 0.1 mM (3-mercaptoethanol. Mouse EpiSCs were derived and maintained in the basal medium supplemented with FGF2/activin, CHIR/XAV, or CHIR/IWR-1. The basal medium for rat EpiSC culture is N2B27 (Tong et al., 2011), which was prepared by mixing 500 ml of DMEM/F12 (Invitrogen) with 500 ml of Neurobasal™ medium (Invitrogen), and adding 5 ml of N2 (Invitrogen), 10 ml of B27 (Invitrogen), 5 ml of Glutamax™ (Invitrogen), and 1 ml of 0.1 M β-mercaptoethanol (Sigma). The basal medium for human ESC culture consists of Knockout™ DMEM/F12 supplemented with 20% KSR (Invitrogen), 1% nonessential amino acids, 2 mM L-glutamine, and 0.1 mM (3-mercaptoethanol. Human ESCs were cultured in the basal medium supplemented with FGF2, CHIR/XAV, or CHIR/IWR-1.
Post-implantation epiblasts were isolated from mouse or rat embryos and dissociated into small clumps as previously described (Chenoweth and Tesar, 2010). Epiblast fragments were placed into 4-well plates pre-coated with 0.1% gelatin (for mouse epiblasts) or pre-seeded with γ-irradiated mouse embryonic fibroblasts (MEFs) (for rat epiblasts) and cultured in either the FGF2/activin or the CHIR/XAV conditions. Emerging EpiSCs were trypsinized and expanded every 2-3 days at a subculture ratio of 1:4. Animal experiments were performed according to the investigator's protocols approved by the University of Southern California Institutional Animal Care and Use Committee.

[1] = tested on: β-catenin/TCF-responsive TOPFlash reporter; test: TOPFlash reporter assay in H9 human ESCs; assay type: cell-based; details: 24 h, added to CHIR
Procedure: (A) TOPFlash™ assay in H9 human ESCs subjected to the indicated treatments for 24 h. Data represent mean±s.d. of three biological replicates. (B) Representative phase contrast and alkaline phosphatase (AP) staining images of H9 human ESCs cultured in the indicated conditions for 3 passages. (C) Phase contrast images of H9 human ESCs cultured in CHIR/XAV or CHIR/IWR-1 for 11 passages. (D) Colony forming efficiency assay of H9 human ESCs cultured in FGF2 or CHIR/IWR-1 conditions. Data represent mean±s.d. of three biological replicates. Right panel: a representative image showing AP staining of colonies formed from H9 human ESCs cultured in either FGF2 or CHIR/IWR-1 condition. (E) Human ESCs cultured in CHIR/IWR-1 for 11 passages were immunostained with the indicated antibodies. (F) Embryoid bodies (EBs) were generated from H9 human ESCs cultured in CHIR/IWR-1 for 11 passages. The outgrowths of EBs were immunostained with the indicated antibodies. (G) H&E staining of teratomas generated from H9 ESCs cultured in CHIR/IWR-1 for 20 passages. (H) Western blot analysis of Axin1 and Axin2 expression in HES3 human ESCs treated with the indicated cytokines/inhibitors for 24 h. (I) Immunofluorescence images of H9 human ESCs (passage 5 in CHIR) overexpressing Flag-tagged Axin2. (J) Representative phase contrast and immunofluorescence images of HES2 human ESCs overexpressing ΔNβ-catenin-ERT2 at passage 5 in basal medium only. These cells were cultured in basal medium only for more than 10 passages and remained morphologically undifferentiated. (K) Phase contrast images of HES2 human ESCs overexpressing ΔNβ-catenin (left panel, passage 2 in basal medium/FGF2) or ΔNβ-catenin/A295W/I296W mutant (right panel, passage 5 in basal medium only). Scale bars, 50 μm (B, C, E-G, and I-K). (L) Model of mouse EpiSC and human ESC self-renewal mediated by β-catenin. In the absence of Wnt or GSK3 inhibitor, a β-catenin destruction complex, containing Axin1, GSK3, and APC is formed, leading to the degradation of β-catenin and differentiation (left). In the presence of Wnt or GSK3 inhibitor, β-catenin is stabilized and can initiate cellular responses related to both self-renewal and differentiation. Stabilized β-catenin induces differentiation when it translocates into the nucleus and binds TCFs to activate downstream targets (middle). Addition of XAV or IWR-1 stabilizes Axin2. […]
For quantifying relative Oct3/4 enhancer activities, pGL3-Oct4 DE and pGL3-Oct4 PE plasmids (gifts from Hans Schöler's lab) were co-transfected with the Renilla vector, using the Amaxa™ Transfection Kit (Lonza). […] For quantifying relative β-catenin/Tcf transcriptional activity, pGL2-SuperTOP™ plasmid (gift from Randall Moon) was co-transfected with the Renilla vector and assayed accordingly.

Compound | EpiSC self-renewal / maintenance of undifferentiated state (mouse EpiSCs) | effect on TOPFlash activity induced by CHIR [1] | differentiation of ΔNβ-catenin-ERT2-overexpressing EpiSCs (mouse EpiSCs; 1 μM 4-OHT, even in the presence of IWR-1)
Cc1ccc2nc(NC(=O)CSc3nc4c(c(=O)n3-c3ccccc3)SCC4)sc2c1 [IWP-2] | unable to support EpiSC self-renewal | only partially suppressed | –
4-hydroxytamoxifen [4-OHT] | – | – | resulted in rapid differentiation
Cc1cc(/C=C/c2ccc3cc(N(C)C)ccc3[n+]2C)c(C)n1-c1ccccc1 [Pyrvinium] | unable to support EpiSC self-renewal | – | –
